Assay results published in patent US20240400549A1, “COMPOUNDS AND THEIR USES FOR TREATING NEURODEGENERATIVE DISEASE” (Academia Sinica, priority 2021, published 2024).

Columns and labels:
[1] = system: C-TDP-43 expressed Neuro-2a cells; assay: AlamarBlue cell viability in C-TDP-43 expressed Neuro-2a cells; type: cell-based, mouse; details: 5 μM; eGFP-C-TDP-43 overexpressing Neuro-2a cells; mock 0.43±0.04 vs blank control 1±0.03
Method: Neuro-2a cells were seeded in a 24-well plate at a concentration of 8×10^4 cells/well and incubated overnight. The attached Neuro-2a cells were then transfected with the eGFP-C-TDP-43 plasmid (1.1 μg) using TurboFect™ transfection reagent (Invitrogen) according to manufacturer's recommendations, and treated with or without 5 μM test compound after 2 h transfection. The cell viability indicator, AlamarBlue (Invitrogen), was added after 42 h of incubation, and the mixture was incubated for another 6 h. […] conditional medium was transferred to a 96-well plate, and cell viability was determined by the increased fluorescence intensity (λex=560 nm, λem=590 nm).
In this example, whether the compounds of formula (I) or (II) could relieve C-TDP-43-mediated cytotoxicity was examined.

[2] = biological target: T1, C-TDP-43 oligomeric intermediates (Homo sapiens, UniProt Q13148); assay: FLIM-FRET of C-TDP-43 oligomeric intermediates in Neuro-2a cells; type: cell-based, mouse
T1 construct: expressed in transfected cells; host or cells: Neuro-2a (mouse neuroblastoma)
T1 sequence (Q13148 208-414 limits assumed): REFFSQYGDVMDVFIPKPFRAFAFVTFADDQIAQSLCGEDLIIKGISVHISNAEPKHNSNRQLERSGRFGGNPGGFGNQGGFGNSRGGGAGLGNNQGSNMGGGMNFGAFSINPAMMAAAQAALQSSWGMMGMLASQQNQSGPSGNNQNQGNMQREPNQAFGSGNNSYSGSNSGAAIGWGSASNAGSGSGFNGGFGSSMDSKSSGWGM
T1 sequence (Q13148 208-414 limits assumed): as above
Method: To study the EFRET of oligomeric intermediates of C-TDP-43, we seeded 2×10^6 cells/dish of Neuro-2a cells in sterile 35 mm μ-Dish and transfected with either both 0.55 μg eGFP-C-TDP-43 and 0.55 μg mCherry-C-TDP-43 or both 0.55 μg eGFP and 0.55 μg mCherry (negative control) plasmids. After 2 hours, compound I-1b was delivered to the experimental group. After 48 h incubation, the Neuro-2a cells were fixed (4% paraformaldehyde in 15 min and stored in 1×PBS buffer) and further analyzed by Q2 FastFLIM system (ISS Inc.). The Neruo2a cells were monitored and captured under oil-immersion objective observation (Nikon Plan Apo 100×/numerical aperture (NA) 1.4). […]
The fitting method of the FastFLIM images were described in the “Experimental Section” of a previous publication (He, R. Y et al. Adv. Sci. 2020, 7 (2), 1901165). […] The FRET efficiency of oligomeric intermediates was calculated by the formula: […]
wherein τD is donor lifetime of eGFP only, and τDA denotes lifetime of intermediates. Then, the EFRET of each pixel to form the FRET maps as well as the histogram of EFRET (FIG. 12B) were calculated by ISS Software VistaVision. […]
To assess C-TDP-43 oligomeric intermediates, fluorescence lifetime imaging microscopy (FLIM) was employed to measure the efficiency of Forster resonance energy transfer (EFRET) of the fluorescence protein-tagged C-TDP-43 in the presence or absence of compound I-1b. […]

[3] = system: YFP—C-TDP-43 transgenic C. elegans; assay: Swimming (thrashing) body bend assay of YFP-C-TDP-43 transgenic C. elegans; type: in vivo; details: YFP—C-TDP-43 C. elegans, swimming in buffer, 30 seconds
Method: The YFP—C-TDP-43 transgenic strains of C. elegans generated in this study were IW33 [Psnb-l:C-TDP-43219-414-YFP (iwIs22)]. The strains of nematodes were maintained with standard procedure and grown at 20° C. as previously described (Zhang, T. et al. Hum. Mol. Genet. 2011, 20 (10), 1952). For all assays, the transgenic young two-day (80 hours) adults were used. For larvae synchronization, the eggs were isolated by lysing gravid adult worms with freshly prepared bleaching solution (0.5 mL 5 M NaOH with 1 mL bleach) and incubated in S buffer (recipe) for overnight. For drug treatments, compound I-1b and/or DMSO were solely or along with MG132 applied to fresh NGM plates prior to installing the synchronized C. elegans. The body bends of the corresponding treatment in a duration of 30 seconds of the various strains were documented through SMZ800N stereomicroscope equipped with a CCD camera (Nikon). A body bend was counted as the head of C. elegans travels across the mid-body in 1×PBS buffer. Then, the bending videos of C. elegans were analyzed by ImageJ with the wrMTrck plugin (Nussbaum-Krammer, C. I. et al. J. Vis. Exp. 2015, (95), 52321). […]
As YFP—C-TDP-43 readily forms cytosolic aggregates in nervous system, the YFP—C-TDP-43 aggregates both in the neuron processes and neuron bodies of the ventral cord were monitored. […]

- averaged EFRET value ([2]; Neuro-2a cells expressing 2FP—C-TDP-43, 48 h, 28.12% without compound, 3.36% negative control): 22.4%
- EFRET of the C-TDP-43 oligomeric intermediates (statistically, ISS VistaVision) ([2]; Neuro-2a cells, decreased from 48.92% without compound): 40.11%
SMILES: CN(C)c1ccc(-c2nc3ccc(OCCOCCOCCNc4cccc5c4C(=O)N(C4CCC(=O)NC4=O)C5=O)cc3s2)cc1 (stereo not shown) [I-1b, 4-((2-(2-(2-((2-(4-(dimethylamino)phenyl)benzo[d]thiazol-6-yl)oxy)ethoxy)ethoxy)ethyl)amino)-2-(2,6-dioxopiperidin-3-yl)isoindoline-1,3-dione]
- cell viability [1]: 0.56±0.04
- increase of bending frequency as compared to the DMSO control group [3]: 28%
